Consider 14 compounds from ChEMBL document CHEMBL5385927, “Chemical and Antiplasmodial Investigations on Eremophila-Derived Alkaloids and Semisynthetic Ether Analogues” (J Nat Prod, 2024).

The IC50 is the point on the concentration scale where inhibition reaches its midpoint. One may read the inhibition as the change of the read-out against control, counted positive when it falls.

Data set [1] in a line: Cytotoxicity against human HEK293 cells assessed as inhibition of cell viability at 80 uM measured after 66 hrs by Alamar Blue dye based fluorescence analysis. It is filed as toxicity. Conditions: read-out: INH. On the technique in general: Resazurin is reduced to fluorescent resorufin, in cell work by metabolically active cells.
Data set [2] deals with Plasmodium falciparum. As to the kind of experiment: Antiplasmodial activity against choloroquine-sensitive ring stage of Plasmodium falciparum 3D7 assessed as inhibition of parasite growth measured after 72 hrs by DAPI staining based analysis. It is filed as functional, organism-based. The conditions noted are these: 3D7, 72 h.
Data set [3] can be described thus: Cytotoxicity against human HEK293 cells assessed as inhibition of cell viability measured after 66 hrs by Alamar Blue dye based fluorescence analysis. Type of data set: toxicity.
In data set [4] the test system is Plasmodium falciparum. As to the kind of experiment: Antiplasmodial activity against choloroquine-sensitive ring stage of Plasmodium falciparum 3D7 assessed as inhibition of parasite growth at 40 uM measured after 72 hrs by DAPI staining based analysis. It is filed as functional.

On to `CC(C)=CCCc1cnc2c(C)cc(O)c3c2c1CC[C@H]3C`, for which the cytotoxicity at 66 h, 80 µM in data set [1] is 92%. Further, the IC50 in the data set on Plasmodium falciparum [2] turned out to be 8.9 µM.
As to `CC(C)=CCCc1cnc2c(C)cc(OCc3ccccc3)c3c2c1CC[C@H]3C`, the IC50 at 66 h in data set [3] was 30.8 µM. For the same compound, in the data set on Plasmodium falciparum [2], the IC50 stood at 7.6 µM.
Regarding `CC(C)=CCCc1cnc2c(C)cc(OC3CCCCC3)c3c2c1CC[C@H]3C`, the cytotoxicity at 66 h, 80 µM in data set [1] was determined as 23%. In the data set with Plasmodium falciparum [4], the inhibition at 40 µM amounted to 93%.
Turning to `C=CCOc1cc(C)c2ncc(CCC=C(C)C)c3c2c1[C@H](C)CC3`, the cytotoxicity at 66 h, 80 µM in data set [1] amounted to 85%. In the data set on Plasmodium falciparum [2], the IC50 came to 13.1 µM.
The like results for `CC(C)=CCCc1cnc2c(C)cc(OCc3cccc([N+](=O)[O-])c3)c3c2c1CC[C@H]3C` were, in that order, 7% and 13.1 µM.
The like results for `CC(C)=CCCc1cnc2c(C)cc(OCc3ccccc3-c3ccccc3)c3c2c1CC[C@H]3C` were, in that order, 94% and 8 µM.
As to `CC(C)=CCCc1cnc2c(C)cc(O)c3c2c1[C@H](O)C[C@H]3C`, the cytotoxicity at 66 h, 80 µM in data set [1] was found to be 14%. Also, the inhibition at 40 µM in the data set with Plasmodium falciparum [4] was 78%.
`CC(C)=CCCc1cnc2c(C)cc(OCc3cccc(Cl)c3)c3c2c1CC[C@H]3C`: the cytotoxicity at 66 h, 80 µM in data set [1] was 65%. Besides, the IC50 in the data set on Plasmodium falciparum [2] amounted to 11 µM.
`CC(C)=CCCc1cnc2c(C)cc(OCc3ccc(Br)cc3)c3c2c1CC[C@H]3C`: the IC50 at 66 h in data set [3] was 40.7 µM. Also, the IC50 in the data set with Plasmodium falciparum [2] was 9.7 µM.
`CC(C)=CCCc1cnc2c(C)cc(OCc3cccc(Br)c3)c3c2c1CC[C@H]3C`: in data set [3], the IC50 at 66 h was found to be 39.3 µM. The IC50 in the data set with Plasmodium falciparum [2] is 7.2 µM.
As for `CC(C)=CCCc1cnc2c(C)cc(OC3CCCC3)c3c2c1CC[C@H]3C`, in data set [1], the cytotoxicity at 66 h, 80 µM came out at 83%. In addition, the IC50 in the data set on Plasmodium falciparum [2] amounted to 12.5 µM.
With `CC(C)=CCCc1cnc2c(C)cc(OCc3cc(F)ccc3F)c3c2c1CC[C@H]3C`, in data set [3], the concentration for half-maximal inhibition (IC50) at 66 h worked out at 31.4 µM. The 50% inhibitory concentration (IC50) in the data set with Plasmodium falciparum [2] came out at 8 µM.
In the case of `C[C@H]1[C@@H](O)O[C@@H]2O[C@@]3(C)CC[C@H]4[C@H](C)CC[C@@H]1[C@@]24OO3` [ARTENIMOL], in the data set on Plasmodium falciparum [2], the IC50 came to 0.021 µM.
As to `COc1ccc(C[C@H](N)C(=O)N[C@H]2[C@@H](O)[C@H](n3cnc4c(N(C)C)ncnc43)O[C@@H]2CO)cc1` [PUROMYCIN], the IC50 at 66 h in data set [3] was 0.49 µM. In addition, in the data set with Plasmodium falciparum [2], the IC50 worked out at 0.033 µM.
